Reference: publication PMC6680510, “Benzotriazine Di-Oxide Prodrugs for Exploiting Hypoxia and Low Extracellular pH in Tumors” (Molecules, 2019)
Values joined by “and” are separate entries in the source; they are usually repeats but may differ in a detail not shown here. Equal entries are not always repeated. Where two headings read alike, the source gives them in different places. Blank lines part the entries; values can stand above or below the molecule they belong to.

Assays:
[1] = system: SiHa cells; experiment: IC50 assay modified for chronic hypoxia (oxia, hypoxia, anoxia); type: cell-based; settings: for IC50: Homo sapiens
Experimental: There are relatively few viable cells in tumors at O2 concentrations as low as in the above anoxic experiments. In addition, extensive changes in gene expression occur under chronic exposure to intermediate O2 concentrations (chronic hypoxia), including the expression of proteins that regulate pHi. […] Therefore, oxic and anoxic exposures were also tested in these same experiments. The 24 h adaptation to hypoxia had little effect on the subsequent growth of the cultures at either pHe value (Figure S6).
To minimize problems with poor cell attachment under chronic hypoxia, the drugs were added from a 3-fold dilution series made in a separate plate, rather than by serial dilution in the plates containing the cells. In addition, the drugs were removed after the 4 h exposure by centrifuging the plates (200g × 5 min) prior to each aspiration. The same modifications were used for the oxic drug exposures in these experiments.

[2] = system: UT-SCC-74B cells; experiment: IC50 assay (inhibition of proliferation, 4 h exposure, SRB); type: cell-based; settings: for IC50: Homo sapiens, 4 h; for IC50 / PCR Anoxic (IC50 at pHe 7.4/IC50 at pHe 6.5) / PCR oxic (IC50 at pHe 7.4/IC50 at pHe 6.5): UT-SCC-74B
Experimental: (§1) Cells were seeded in 96-well plates (SiHa or FaDu 1500 cells/well, UT-SCC-74B 800 cells/well) in 100 μL. After incubation for 2 h, the drugs were added in 50 μL of the same titrated medium at 3× the final concentration to duplicate the wells. After a further 4 h the plates were checked for drug precipitation using a phase contrast microscope, then drugs were removed by aspirating and washing with the standard (pH 7.4) medium, then aspirating again and adding 150 μL of the medium. Cultures were then grown for 5 days before staining with sulphorhodamine B and measuring absorbance, with the estimation of IC50 values using 4-parameter logistic regression, as previously carried out.
The medium and plasticware was equilibrated in the chamber for 3 days prior to use. In the anoxia experiments, FaDu cells were plated in poly-L-lysine coated plates (Corning Cat # 356461) to improve attachment. […]
Footnotes: a Number of experiments. b Anoxic cytotoxicity ratio = oxic IC50/anoxic IC50. c pH
cytotoxicity ratio = IC50 at pHe 7.4/ IC50 at pHe 6.5. d Overall ratio = oxic IC50 pHe 7.4 / anoxic IC50 pHe
6.5. Values are means and errors are SEM. For ratios, the errors are root mean square SEM. […]

[3] = system: SiHa cells; experiment: as above; settings: SiHa; for IC50: Homo sapiens, 4 h
Experimental: as §1
The medium and plasticware was equilibrated in the chamber for 3 days prior to use. In the anoxia experiments, FaDu cells were plated in poly-L-lysine coated plates (Corning Cat # 356461) to improve attachment.
Cells were subsequently grown under standard cell culture conditions (oxia, pHe 7.4) for 5 days before staining with sulforhodamine B (SRB). […] (B) SN30000 (2). (C) BTO acid 4a. Values are means and errors are ranges for duplicate cultures in a single experiment. Fitted curves are 4-parameter logistic regressions. PCR = pH cytotoxicity ratio. ACR = anoxia cytotoxicity ratio. TMR = tumor microenvironment ratio.

[4] = system: FaDu cells; experiment: as above; type: cell-based; settings: for IC50: Homo sapiens, 4 h
Experimental: Cells were seeded in 96-well plates (SiHa or FaDu 1500 cells/well, UT-SCC-74B 800 cells/well) in 100 μL. After incubation for 2 h, the drugs were added in 50 μL of the same titrated medium at 3× the final concentration to duplicate the wells. After a further 4 h the plates were checked for drug precipitation using a phase contrast microscope, then drugs were removed by aspirating and washing with the standard (pH 7.4) medium, then aspirating again and adding 150 μL of the medium. Cultures were then grown for 5 days before staining with sulphorhodamine B and measuring absorbance, with the estimation of IC50 values using 4-parameter logistic regression, as previously carried out [85].

[5] = Solubility in AlphaMEM + 5% FBS, pH 7.4; settings: culture medium (AlphaMEM + 5% FBS), pH 7.4, plasma or biological fluid, kinetic from dmso stock
[6] = read-out: Anoxic IC50, SiHa, pHe 6.5, 4 h, anoxic
[7] = read-out: Anoxic IC50, SiHa, pHe 7.4, 4 h, anoxic
[8] = read-out: Oxic IC50, SiHa, pHe 6.5, 4 h, oxic
[9] = read-out: Oxic IC50, SiHa, pHe 7.4, 4 h, oxic
[10] = pHe 6.5, 4 h, anoxic, read-out: Anoxic IC50
[11] = pHe 6.5, 4 h, oxic, read-out: Oxic IC50
[12] = pHe 7.4, 4 h, anoxic, read-out: Anoxic IC50
[13] = pHe 7.4, 4 h, oxic, read-out: Oxic IC50

SMILES: O=C(O)CCCc1ccc(N(CCCl)CCCl)cc1 [Compound 1, chlorambucil]
PCR (IC50 for pHe 7.4/IC50 for pHe 6.5) ([1]; 0.2% O2): 9.9 ± 2.8
PCR (IC50 for pHe 7.4/IC50 for pHe 6.5) ([1]; 20% O2): 6.5 ± 2.0
PCR (IC50 for pHe 7.4/IC50 for pHe 6.5) ([1]; <0.01% O2): 7.40 ± 1.64
IC50 ([1]; 0.2% O2 (24 h before and during 4 h exposure), pHe 6.5): 1.75 ± 0.44 µM
IC50 ([1]; 0.2% O2 (24 h before and during 4 h exposure), pHe 7.4): 17.3 ± 2.53 µM
IC50 ([1]; 4 h, 20% O2, pHe 6.5, 4 h): 1.84 ± 0.48 µM
IC50 ([1]; 4 h, 20% O2, pHe 7.4, 4 h): 12 ± 2 µM
IC50 ([1]; 4 h, <0.01% O2, pHe 6.5, 4 h): 1.49 ± 0.18 µM
IC50 ([1]; 4 h, <0.01% O2, pHe 7.4, 4 h): 11 ± 2.1 µM
ACR (IC50 for 20% O2/IC50 for <0.01% O2) ([1]; pHe 6.5): 1.23 ± 0.34
HCR (IC50 for 20% O2/IC50 for 0.2% O2) ([1]; pHe 6.5): 1.05 ± 0.38
ACR (IC50 for 20% O2/IC50 for <0.01% O2) ([1]; pHe 7.4): 1.09 ± 0.27
HCR (IC50 for 20% O2/IC50 for 0.2% O2) ([1]; pHe 7.4): 0.69 ± 0.15
ACR (oxic IC50/anoxic IC50) [2]: 1.26 ± 0.20 and 0.94 ±0.21
IC50 ([2]; pHe 6.5, 4 h, 20% O2, read-out: Oxic IC50): 0.8 ± 0.17 µM
IC50 ([2]; pHe 6.5, 4 h, <0.01% O2, read-out: Anoxic IC50): 0.85 ± 0.06 µM
IC50 ([2]; pHe 7.4, 4 h, 20% O2, read-out: Oxic IC50): 6.34 ± 0.88 µM
IC50 ([2]; pHe 7.4, 4 h, <0.01% O2, read-out: Anoxic IC50): 5.05 ± 0.38 µM
PCR Anoxic (IC50 at pHe 7.4/IC50 at pHe 6.5) ([2]; listed as CHL): 5.9
PCR Anoxic (IC50 at pHe 7.4/IC50 at pHe 6.5) ([2]; listed as CHL (1)): 5.94 ± 0.61
PCR oxic (IC50 at pHe 7.4/IC50 at pHe 6.5) ([2]; listed as CHL): 7.9
PCR oxic (IC50 at pHe 7.4/IC50 at pHe 6.5) ([2]; listed as CHL (1)): 7.93 ± 2.01
IC50 [3, 6]: 3.78 ± 1.51 µM
IC50 [3, 7]: 13.6 ± 1.1 µM
IC50 [3, 8]: 1.58 ± 0.27 µM
IC50 [3, 9]: 12.7 ± 1.2 µM
IC50 [4, 10]: 2.26 ± 0.37 µM
IC50 [4, 11]: 3.19 ± 0.78 µM
IC50 [4, 12]: 13.1 ± 8.7 µM
IC50 [4, 13]: 15 ± 1.6 µM

SMILES: COC(=O)CCc1n[n+]([O-])c2ccc(C)cc2[n+]1[O-] [Compound 6b, 3-(3-Methoxy-3-oxopropyl)-6-methylbenzo[e][1,2,4]triazine 1,4-Dioxide]
melting point: 166 to 168 °C
solubility [5]: > 900 µM

The next lines start with results.

melting point: 185 to 188 °C
SMILES: Cc1ccc2c(c1)[n+]([O-])nc(NCCCC(=O)O)[n+]2[O-] (hydrate or solvate) [Compound 12a, 3-((3-Carboxypropyl)amino)-7-methylbenzo[e][1,2,4]triazine 1,4-Dioxide]

melting point: 181 to 183 °C (dec.)
solubility [5]: > 980 µM
SMILES: Cc1ccc2c(c1)[n+]([O-])nc(CCC(=O)O)[n+]2[O-] [Compound 5a, 3-(2-Carboxyethyl)-7-methylbenzo[e][1,2,4]triazine 1,4-Dioxide]
IC50 [3, 6]: 225 ± 38 µM
IC50 [3, 7]: 542 ± 113 µM
IC50 [3, 8]: 449 ± 188 µM
IC50 [3, 9]: > 3000 µM
TMR (overall TME ratio = oxic IC50 pHe 7.4/anoxic IC50 pHe 6.5) [3]: >13
PCR Anoxic (IC50 at pHe 7.4/IC50 at pHe 6.5) ([3]; anoxic): 2.41 ± 0.64
PCR oxic (IC50 at pHe 7.4/IC50 at pHe 6.5) ([3]; oxic): >6.7
ACR (anoxic cytotoxicity ratio = oxic IC50/anoxic IC50) ([3]; pHe 6.5): 1.99 ± 0.90
ACR (anoxic cytotoxicity ratio = oxic IC50/anoxic IC50) ([3]; pHe 7.4): >5.5
TMR (oxic IC50 pHe 7.4/anoxic IC50 pHe 6.5) [4]: 13.9 ± 1.7
IC50 [4, 10]: 203 ± 18 µM
IC50 [4, 11]: 1100 ± 110 µM
IC50 [4, 12]: 924 ± 64 µM
IC50 [4, 13]: 2770 ± 690 µM
PCR Anoxic (IC50 at pHe 7.4/IC50 at pHe 6.5) ([4]; anoxic): 4.29 ± 0.55
PCR oxic (IC50 at pHe 7.4/IC50 at pHe 6.5) ([4]; oxic): 2.55 ± 0.32
ACR (oxic IC50/anoxic IC50) ([4]; pHe 6.5): 5.49 ± 0.26
ACR (oxic IC50/anoxic IC50) ([4]; pHe 7.4): 3.00 ± 0.22

melting point: 165 to 167 °C
solubility [5]: > 950 µM
SMILES: COC(=O)CCc1n[n+]([O-])c2cc(C)ccc2[n+]1[O-] [Compound 5b, 3-(3-Methoxy-3-oxopropyl)-7-methylbenzo[e][1,2,4]triazine 1,4-Dioxide]
